Reference: paper PMC10989020, “Preclinical characterization of a non-peptidomimetic HIV protease inhibitor with improved metabolic stability” (Antimicrobial Agents and Chemotherapy, 2024)
Read-outs that look alike come from different tables or passages of the source.

What was measured:
HIV-1 IIIb = assay: 5-day cytoprotection antiviral assay in MT-4 cells; assay type: cell-based
[1] = Cytotoxicity in CD4+ T-lymphocytes; assay type: cell-based; details: human, uninfected (mock infected) primary CD4+ T lymphocytes
Description: (§1) Compound cytotoxicity assessment in MT-4 cells, primary CD4+ T lymphocytes, and MDMs was carried out using a protocol identical to the antiviral assay except uninfected cells were used and tested with higher concentration ranges of test compounds. Assessment of cytotoxicity in additional human cell lines (Gal-PC3, Gal-HepG2, HEp-2, Huh-7, MRC-5, HepG2-NTCP, Huh7-Lunet HCV 1b and 2a replicons, NHBE, A549-hACE2) and primary human PBMCs (resting and stimulated with PHA/IL-2) and hepatocytes have been described previously ([19]). For all cytotoxicity assays, the CC50 value for puromycin was determined as a positive internal control and to assess assay sensitivity in each cell type. The effect of tested compounds on cell viability was measured using a CellTiter-Glo readout, performed according to the manufacturer’s recommendations.

[2] = Cytotoxicity in monocyte-derived macrophages; assay type: cell-based; details: human, uninfected (mock infected) monocyte-derived macrophages
Description: as §1

[3] = Metabolic stability in human liver microsomes; assay type: in vitro ADME
[4] = target: recombinant HIV-1 protease (Human immunodeficiency virus type 1 group M subtype B, UniProt P04585); assay: biochemical
Description: For the HIV protease assay, recombinant HIV-1 protease expression, purification, and enzymatic assay using a fluorogenic readout were performed as previously described with some minor changes ([22]). […] After a 20-minute pre-incubation, the enzymatic reaction was initiated by the addition of the fluorogenic substrate to a final concentration of 40 µM and a final volume of 100 µL. The reaction was measured over 20 minutes on a Tecan Infinite M1000 plate reader using excitation and detection wavelengths of 320 nm and 420 nm, respectively.

MT-4 T cell line = assay: Cytotoxicity in uninfected MT-4 cells; assay type: cell-based, human; details: mock infected
Description: as §1

[5] = Cytotoxicity in uninfected MT-4 cells; assay type: cell-based, human; details: human, uninfected (mock infected) MT-4 T cells, MT-4 T cell line
Description: as §1

HIV-1 BaL [6] = assay: p24 production antiviral assay in monocyte-derived macrophages; assay type: cell-based
Source text: (§2) Antiviral assays performed in HIV-1BaL infected CD4 +T-lymphocytes and monocyte-derived macrophages (MDMs) have been described previously ([18]). Cell-free supernatants derived from the CD4 +T cell and macrophage cultures were harvested 7- and 12-days post-infection, respectively, and the amount of HIV present was quantified by p24 antigen enzyme-linked immunosorbent assay (ELISA, Perkin Elmer, Waltham, MA) performed according to the manufacturer’s protocol.

[7] = single oral dose co-administered with a pharmacological boosting agent; cited from earlier work
[8] = test system: HIV-1LAI wild type and site-directed PR mutants; assay: microbe, parasite or virus in culture; assay type: cell-based
HIV-1 BaL [9] = assay: p24 production antiviral assay in CD4+ T-lymphocytes; assay type: cell-based
Source text: as §2

[10] = test system: panel of 49 patient-derived HIV-1 reporter viruses with PI resistance-associated substitutions; assay type: cell-based; details: for isolates with complete loss of activity: of 49 PI-resistant clinical isolates
HIV-1IIIb = assay: Two-drug in vitro combination assay in MT-2 cells (MacSynergy II); assay type: cell-based; details: for Combination effect: pairwise combination with GS-9770; for Antagonism volume / Synergy volume: pairwise combination with GS-9770, 99% confidence, MT-2/HIV-1IIIb
Description: Anti-HIV-1 assays evaluating the in vitro antiviral effect of two-drug combinations were performed in MT-2 cells as previously described ([26]). Data were normalized to positive and negative controls in each plate and expressed as a percentage of protection from CPE-dependent cell death and analyzed with the MacSynergy II software. Combination data were analyzed at the 99% confidence level, with synergy/antagonism volumes defined as follows: high synergy (>100 µM^2%), moderate synergy (50 to <100 uM^2%), additivity (>−50 to <50 µM^2%), and antagonism (<−50 µM^2%).

[11] = test system: 20 HIV-1 clinical isolates; assay: Antiviral assay in PBMCs with HIV-1 clinical isolates (RT endpoint); assay type: cell-based; details: Human immunodeficiency virus 1, PBMC
Description: (§3) Antiviral assays using fresh human PBMCs independently infected with a panel of clinical HIV-1 and HIV-2 isolates were performed by Southern Research as a contracted research study and assessed 7 days post-infection using reverse transcriptase (RT) endpoint assay. Antiviral assays using HIV-1 reporter viruses containing patient-derived sequences encoding all of PR and a portion of RT (amino acids 1–313) and conferring resistance to FDA-approved HIV PIs were performed by Monogram Biosciences Inc. (South San Francisco, CA) using their previously described Phenosense assay ([25]).

two HIV-2 isolates = assay: Antiviral assay in PBMCs with HIV-2 clinical isolates (RT endpoint); assay type: cell-based; details: Human immunodeficiency virus 2, PBMC, 168 h, 7-day, RT activity
Description: as §3

[12] = test system: HIV-1 mutants resistant to NRTIs, NNRTIs, INSTIs
[13] = Cytotoxicity in unstimulated PBMCs; assay type: cell-based; details: human, unstimulated (resting) PBMCs
Description: as §1

[14] = Cytotoxicity in stimulated PBMCs; assay type: cell-based; details: human
Description: as §1

Cytotoxicity in MRC-5 = assay type: cell-based; details: human, MRC-5 cells
Description: as §1

Cytotoxicity in Huh-7 = assay type: cell-based; details: human, Huh-7 cells
Description: as §1

[15] = Cytotoxicity in primary human hepatocytes; assay type: cell-based
Description: as §1

Cytotoxicity in Gal-PC3 = assay type: cell-based; details: human, Gal-PC3 cells
Description: as §1

[16] = Cytotoxicity in Gal-HepG2; assay type: cell-based; details: human, Gal-HepG2 cells
Description: as §1

Cytotoxicity in HEp-2 = assay type: cell-based; details: human, HEp-2 cells
Description: as §1

[17] = Cytotoxicity across human cell types (summary ranges); assay type: cell-based; details: human, human cell lines and primary cells (all cell types tested); across all of the cell types tested; read-out: mean CC50 range
Description: as §1

[18] = Human immunodeficiency virus 1, PR L24I M46L A77I V82A
[19] = Human immunodeficiency virus 1, PR L24I M46L I64V A77I V82A
[20] = Human immunodeficiency virus 1, PR M46L A77I V82A
[21] = Human immunodeficiency virus 1, PR V82A
[22] = Human immunodeficiency virus 1, Wild type (WT) HIV-1LAI

## COC(=O)N[C@H](C(=O)N[C@@H](Cc1ccccc1)[C@@H](O)CN(Cc1ccc(-c2ccccn2)cc1)NC(=O)[C@@H](NC(=O)OC)C(C)(C)C)C(C)(C)C [ATV, atazanavir]
HIV-1 IIIb; Human immunodeficiency virus 1, IIIB, T-cell, 120 h
  EC50: 11 ± 3 nM
HIV-1 IIIb; MT-4 T cell line
  SI (CC50/EC50 ratio): 4,700
HIV-1 IIIb; calculated from MT-4/HIV-1IIIb EC50 and Hill coefficient
  95% effective concentration (EC95): 19.5 nM
[1]
  CC50: > 50000 nM
[2]
  CC50: > 50000 nM
[3]
  Eh% (percent predicted hepatic extraction): 63%
  Predicted CL (predicted human clearance): 13 mL/min/kg
[3]; read-out: T½ in the presence of human liver microsomes
  half-life: 24 min
[4]
  Ki: 0.023 nM
MT-4 T cell line
  CC50: 51000 ± 8000 nM
[5]
  CC50: > 50000 nM
HIV-1 BaL [6]
  SI (CC50/EC50 ratio): >3,100
HIV-1 BaL [6]; Human immunodeficiency virus 1, Macrophage, HIV-1BaL infected
  EC50: 16 ± 12 nM
[7]
  plasma half-life in humans: 516 min
[8]; [18]
  EC50: 4.2 ± 0.8 nM
[8]; [19]
  EC50: 11.7 ± 1.4 nM
[8]; [20]
  EC50: 6.9 ± 1.8 nM
[8]; [21]
  EC50: 7.6 ± 3.3 nM
[8]; [22]
  EC50: 5.7 ± 3.6 nM
[8]; PR L24I M46L A77I V82A
  fold-change relative to WT: 0.7 fold
[8]; PR L24I M46L I64V A77I V82A
  fold-change relative to WT: 2.1 fold
[8]; PR M46L A77I V82A
  fold-change relative to WT: 1.2 fold
[8]; PR V82A
  fold-change relative to WT: 1.3 fold
[8]; Wild type (WT) HIV-1LAI
  fold-change relative to WT: 1.0 fold
HIV-1 BaL [9]
  SI (CC50/EC50 ratio): >12,000
HIV-1 BaL [9]; Human immunodeficiency virus 1, T-lymphocyte, HIV-1BaL infected
  EC50: 4.3 ± 1.9 nM
[10]
  data points with fold change in EC50 above limit: five
  isolates with complete loss of activity: 3
[10]; 49 PI-resistant reporter viruses
  mean fold change (FC) in EC50 vs wild-type HIV-1 (geometric mean): 9.1 fold
[10]; of 49 isolates, cutoff 10-fold
  isolates with greater than 10-fold loss in susceptibility: 16

## O=C(NCc1c(F)cc(F)cc1F)c1cn2c(c(O)c1=O)C(=O)N1[C@H]3CC[C@H](C3)O[C@@H]1C2 [BIC, bictegravir]
HIV-1IIIb
  Combination effect: Highly synergistic
  Antagonism volume: −11 ± 13 µM^2.%
  Synergy volume: 156 ± 49 µM^2.%

## CC(C)CN(C[C@@H](O)[C@H](Cc1ccccc1)NC(=O)O[C@H]1CO[C@H]2OCC[C@H]21)S(=O)(=O)c1ccc(N)cc1 [DRV, darunavir]
[11]; 168 h, read-out: mean EC50
  EC50: 3.2 nM
[11]; read-out: EC50 range
  EC50: 0.8 to 9.2 nM
Two HIV-2 isolates
  EC50: 8.5 nM
[10]
  isolates with complete loss of activity: 5

## O=C1Nc2ccc(Cl)cc2[C@@](C#CC2CC2)(C(F)(F)F)O1 [EFV, efavirenz]
[12]; K103N
  Fold resistance (mutant/wildtype EC50 ratio): 14 ± 12
[12]; K103N+Y181C
  Fold resistance (mutant/wildtype EC50 ratio): 11 ± 5
[12]; L100I+K103N
  Fold resistance (mutant/wildtype EC50 ratio): >30
[12]; Y181C
  Fold resistance (mutant/wildtype EC50 ratio): 3.5 ± 0.6
[12]; Y188L
  Fold resistance (mutant/wildtype EC50 ratio): >30
[8]; [18]
  EC50: 1.1 ± 0.1 nM
[8]; [19]
  EC50: 1 ± 0.2 nM
[8]; [20]
  EC50: 1 ± 0.2 nM
[8]; [21]
  EC50: 1.2 ± 0.6 nM
[8]; [22]
  EC50: 1.3 ± 0.7 nM
[8]; PR L24I M46L A77I V82A
  fold-change relative to WT: 0.9 fold
[8]; PR L24I M46L I64V A77I V82A
  fold-change relative to WT: 0.8 fold
[8]; PR M46L A77I V82A
  fold-change relative to WT: 0.8 fold
[8]; PR V82A
  fold-change relative to WT: 1.0 fold
[8]; Wild type (WT) HIV-1LAI
  fold-change relative to WT: 1.0 fold

## COc1cc2c(cc1Cc1cccc(Cl)c1F)c(=O)c(C(=O)O)cn2[C@H](CO)C(C)C [EVG, elvitegravir]
[12]; E92Q+N155H
  Fold resistance (mutant/wildtype EC50 ratio): >50
[12]; E138K+Q148K
  Fold resistance (mutant/wildtype EC50 ratio): >50
[12]; G140S+Q148R
  Fold resistance (mutant/wildtype EC50 ratio): >50
[12]; Q148+N155H
  Fold resistance (mutant/wildtype EC50 ratio): >50

## Nc1nc(=O)n([C@@H]2CS[C@H](CO)O2)cc1F [FTC, emtricitabine]
HIV-1IIIb
  Combination effect: Highly synergistic
  Antagonism volume: −8 ± 11 µM^2.%
  Synergy volume: 139 ± 24 µM^2.%
[12]; 6TAMs
  Fold resistance (mutant/wildtype EC50 ratio): 23 ± 21
[12]; K65R
  Fold resistance (mutant/wildtype EC50 ratio): 12 ± 6
[12]; M184V
  Fold resistance (mutant/wildtype EC50 ratio): >141

## CC(C)(C#Cc1ccc(-c2ccc(Cl)c3c(NS(C)(=O)=O)nn(CC(F)(F)F)c23)c([C@H](Cc2cc(F)cc(F)c2)NC(=O)Cn2nc(C(F)(F)F)c3c2C(F)(F)[C@@H]2C[C@H]32)n1)S(C)(=O)=O [LEN, lenacapavir]
HIV-1IIIb
  Combination effect: Highly synergistic
  Antagonism volume: −0.6 ± 1.7 µM^2.%
  Synergy volume: 201 ± 111 µM^2.%

## COc1ccc(C[C@H](N)C(=O)N[C@H]2[C@@H](O)[C@H](n3cnc4c(N(C)C)ncnc43)O[C@@H]2CO)cc1 [Puromycin, puromycin]
[13]
  CC50: 540 ± 210 nM
[14]
  CC50: 800 ± 150 nM
Cytotoxicity in MRC-5
  CC50: 310 ± 200 nM
Cytotoxicity in Huh-7
  CC50: 800 ± 700 nM
[15]
  CC50: 1600 ± 200 nM
Cytotoxicity in Gal-PC3
  CC50: 450 ± 170 nM
[16]
  CC50: 1400 ± 800 nM
Cytotoxicity in HEp-2
  CC50: 600 ± 300 nM
[17]
  CC50: 310 to 1600 nM

## Cc1cc(/C=C/C#N)cc(C)c1Nc1ccnc(Nc2ccc(C#N)cc2)n1 [RPV, rilpivirine]
HIV-1IIIb
  Combination effect: Highly synergistic
  Antagonism volume: 0 ± 0 µM^2.%
  Synergy volume: 184 ± 65 µM^2.%

## CC(C)OC(=O)[C@H](C)N[P@](=O)(CO[C@H](C)Cn1cnc2c(N)ncnc21)Oc1ccccc1 [TAF, tenofovir alafenamide]
HIV-1IIIb
  Combination effect: Highly synergistic
  Antagonism volume: −4 ± 7 µM^2.%
  Synergy volume: 166 ± 51 µM^2.%
